Earlier results, collected in patent publication US9969773B2, “Polymers, pharmaceutical compositions and methods of synthesizing the same” (NEW YORK UNIVERSITY, priority 2014, dated 2018).

For `CC[C@H](C)[C@H](NC(=O)[C@H](CCC(=O)O)NC(=O)[C@H](CO)NC(=O)[C@@H](NC(=O)[C@@H](N)CO)C(C)C)C(=O)N[C@@H](CCC(N)=O)C(=O)N[C@@H](CC(C)C)C(=O)N[C@@H](CCSC)C(=O)N[C@@H](Cc1cnc[nH]1)C(=O)N[C@@H](CC(N)=O)C(=O)N[C@@H](CC(C)C)C(=O)NCC(=O)N[C@@H](CCCCN)C(=O)N[C@@H](Cc1cnc[nH]1)C(=O)N[C@@H](CC(C)C)C(=O)N[C@@H](CC(N)=O)C(=O)N[C@@H](CO)C(=O)N[C@@H](CCSC)C(=O)N[C@@H](CCC(=O)O)C(=O)N[C@@H](CCCN=C(N)N)C(=O)N[C@H](C(=O)N[C@@H](CCC(=O)O)C(=O)N[C@@H](Cc1c[nH]c2ccccc12)C(=O)N[C@@H](CC(C)C)C(=O)N[C@@H](CCCN=C(N)N)C(=O)N[C@@H](CCCCN)C(=O)N[C@@H](CCCCN)C(=O)N[C@@H](CC(C)C)C(=O)N[C@@H](CCC(N)=O)C(=O)N[C@@H](CC(=O)O)C(=O)N[C@H](C(=O)N[C@@H](Cc1cnc[nH]1)C(=O)N[C@@H](CC(N)=O)C(=O)N[C@@H](Cc1ccccc1)C(=O)O)C(C)C)C(C)C` [PTH (1-34), parathyroid hormone (1-34)], which half-life in serum is on record?
The half-life in serum was roughly 5 min.
